Our source for the EC50 and AUC values is patent US8183388B2, “Androgen receptor modulator and uses thereof” (Eli Lilly and Company, priority 2009, dated 2012).

Data set [1] has as its target T1, human androgen receptor (AR) (Homo sapiens, UniProt P10275).
T1 construct: expressed in transfected cells; host or cells: mouse myoblast C2C12 cells
T1 sequence (P10275 1-920): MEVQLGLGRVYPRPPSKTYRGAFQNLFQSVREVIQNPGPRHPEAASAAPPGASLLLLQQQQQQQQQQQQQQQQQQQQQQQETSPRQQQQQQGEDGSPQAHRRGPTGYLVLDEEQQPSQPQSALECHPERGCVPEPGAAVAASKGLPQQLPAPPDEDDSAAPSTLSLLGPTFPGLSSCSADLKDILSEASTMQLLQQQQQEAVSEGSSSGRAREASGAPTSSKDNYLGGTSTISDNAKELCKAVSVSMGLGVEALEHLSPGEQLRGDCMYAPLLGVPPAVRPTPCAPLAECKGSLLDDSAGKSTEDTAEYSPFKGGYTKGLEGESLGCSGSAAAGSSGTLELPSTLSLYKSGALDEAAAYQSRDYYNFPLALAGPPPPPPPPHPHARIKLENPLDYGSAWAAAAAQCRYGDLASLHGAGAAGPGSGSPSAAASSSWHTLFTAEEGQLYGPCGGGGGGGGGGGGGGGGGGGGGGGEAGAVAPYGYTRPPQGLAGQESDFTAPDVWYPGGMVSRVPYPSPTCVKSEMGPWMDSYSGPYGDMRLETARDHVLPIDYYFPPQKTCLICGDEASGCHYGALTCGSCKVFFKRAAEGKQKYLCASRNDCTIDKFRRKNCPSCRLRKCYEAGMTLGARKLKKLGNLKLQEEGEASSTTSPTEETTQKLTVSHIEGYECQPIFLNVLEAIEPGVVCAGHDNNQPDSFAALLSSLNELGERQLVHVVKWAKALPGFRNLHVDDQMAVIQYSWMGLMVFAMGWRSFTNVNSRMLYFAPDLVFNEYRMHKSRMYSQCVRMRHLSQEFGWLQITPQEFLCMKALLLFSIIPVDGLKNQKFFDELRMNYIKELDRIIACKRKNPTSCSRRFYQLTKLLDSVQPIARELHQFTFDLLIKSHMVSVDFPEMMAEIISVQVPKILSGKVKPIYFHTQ
As to the kind of experiment: C2C12 AR/ARE reporter assay. As to conditions: mouse myoblast C2C12 cells, agonist mode, geometric mean of n=7; SD of about 0.08. Type of data set: cell-based. As to the method: As an indicator of agonist activity in muscle tissue, the C2C12 AR/ARE reporter assay is performed. Briefly, mouse myoblast C2C12 cells are co-transfected using Fugene™ reagent. A reporter plasmid containing a GRE/ARE (glucocorticoid response element/androgen response element) and TK promoter upstream of the luciferase reporter cDNA, is transfected with a plasmid constitutively expressing human androgen receptor (AR) using viral CMV promoter. Cells are transfected in T150 cm^2 flasks in DMEM media with 4% charcoal stripped Fetal Bovine Serum (FBS). After a 5 hour incubation, transfected cells are trypsinized, plated in 96 well dishes in DMEM media containing 4% charcoal-stripped FBS, incubated for 2 h and then exposed to various concentrations of test compounds ranging from about 0.01 nM to 10 μM. […] Data is fit to a 4 parameter-fit logistics to determine EC50 values. The % efficacy is determined versus maximum stimulation obtained with 10 nM methyltrienolone.
In general terms: Reporter assays use an easily measured gene product as a stand-in for the process of interest.

Data set [2] in a line: Determination of plasma exposure. Type of data set: in vivo. To be noted: Sprague Dawley, rat, male rats, read-out: AUC (area under the plasma concentration time curve). The procedure: Groups of male Sprague Dawley rats (6 animals/group) are dosed either orally (dosing volume of 1.25 ml/kg; vehicle of 5% DMSO/95% HEC) or subcutaneously (dosing volume of 2.5 ml/kg; vehicle of 5% DMSO/95% soybean oil) with 10 mg/kg p.o, 1 mg/kg s.c., 3 mg/kg s.c., or 10 mg/kg s.c. of the compound of Formula (I), once per day for two weeks. Starting on the second to last day of dosing, plasma samples are collected at 0.5, 2, 4, or 24 hours post-dosing (two animals are sampled at each time-point, with the same animals being used for the 0.5 and 24 hour time-point samples). The plasma concentration of the compound of Formula (I) is determined for each collected sample using LC/MS/MS (Sciex API-4000 LC/MS/MS system). The resulting concentrations are used to construct an area under the plasma concentration time curve (AUC) for each administered dose as an index of exposure. Following a protocol essentially as described above, the administered doses of the compound of Formula (I) produced the following AUC values: 10 mg/kg p.o: about 295,511 ng·hr./ml.; 1 mg/kg s.c.: about 38,963 ng·hr./ml.; 3 mg/kg s.c.: about 137,056 ng·hr./ml.; and 10 mg/kg s.c.: about 218,537 ng·hr./ml.

Read-outs that look alike come from different tables or passages of the source.

For the molecule `CC(C)OC(=O)N[C@H]1Cc2c(n(C[C@H]3OCC[C@@H]3O)c3ccc(C#N)cc23)C1` [compound of Formula (I), [(S)-7-Cyano-4-((2R,3S)-3-hydroxytetrahydrofuran-2-ylmethyl)-1,2,3,4-tetrahydrocyclopenta[b]indol-2-yl]-carbamic acid isopropyl ester], the EC50 (usually the midpoint of the concentration-response curve) in data set [1] is around 0.2 nM. The AUC in data set [2] (po, 10 mg/kg p.o. once per day for two weeks, 5% DMSO/95% HEC) was around 296 µg·h/mL; in data set [2] (sc, 1 mg/kg s.c. once per day for two weeks, 5% DMSO/95% soybean oil), around 39 µg·h/mL; in data set [2] (sc, 3 mg/kg s.c. once per day for two weeks, 5% DMSO/95% soybean oil), around 137 µg·h/mL; in data set [2] (sc, 10 mg/kg s.c. once per day for two weeks, 5% DMSO/95% soybean oil) it was around 219 µg·h/mL.
